One data set addresses T1, Nurr1-LBD (Mus musculus, UniProt Q06219).
T1 construct: transfected with pCMV-fNurr1, pGAL-Nurr1(LBD), pGAL-Nor1(LBD) or pGAL-Nur77(LBD) and reporter construct; expressed in transfected cells; host or cells: SK-N-BE(2)C (human neuroblastoma), N27-A (rat dopaminergic), MN9D (murine dopaminergic)
The data set is described as follows: Luciferase reporter assay, Nurr1-LBD, SK-N-BE(2)C cells. Type of data set: cell-based. The settings on record: for Luciferase activity (fold): Fig. 1d. The source says:
Nurr1 transactivity was normalized to β-galactosidase activity.
In general terms: In a reporter assay the amount or activity of a reporter protein is the signal.

The next data set has as its system N27-A cells. The note with it: for LDH release (%): Fig. 2b, MPP+, CQ 100 µM, 4A7C-301 1 µM; for MPP+-induced cytotoxicity (in words): N27-A and MN9D cells, dose-dependent. The method, then: SK-N-BE(2)C human neuroblastoma, BV2 mouse microglia (ATCC), HeLa and MN9D cell lines were cultured in Dulbecco’s Modified Eagle Medium (DMEM) supplemented with 10% fetal bovine serum (FBS) and 100 U /ml penicillin and 100 μg /ml streptomycin. The murine MN9D dopaminergic cell line was kindly provided by Drs. Michael Zigmond and Juliann Jaumotte from the University of Pittsburgh. The N27-A rat dopaminergic cell line was kindly provided by Dr. Curt Freed from the University of Colorado School of Medicine. […] For transactivity assay, SK-N-BE(2)C and N27-A cell lines were transfected with pCMV-fNurr1, pGAL-Nurr1(LBD), pGAL-Nor1(LBD) or pGAL-Nur77(LBD) and reporter construct (p4xNL3-Luc for fNurr1 or p8xUAS-Luc for LBD constructs). pRSV-β-gal was co-transfected as an internal control. Cells were lysed in a lysis buffer (25 mM Tris-phosphate (pH 7.8), 2 mM DTT, 2 mM DCTA (1,2-diaminocyclohexane-N,N,N′,N′-tetraacetic acid), 10% glycerol, and 1% Triton X-100) 24 h after transfection, followed by adding firefly luciferase substrate for luminescence detection measured by a luminometer plate reader (SpectraMax®; Molecular device). Nurr1 transactivity was normalized to β-galactosidase activity. […] For Nurr1 stability determination, MN9D cells were incubated with MPP^+ (0.5 mM) for 2, 4, 8, 16, 24, and 32 h, or were transduced with lentivirus expressing GFP only or αSyn (wild-type or A53T) then harvested 24, 48 and 72 h after transduction. For autophagolysosome (APL) formation assay, HeLa and N27-A cells were transfected with mRFP-GFP-LC3 (Addgene) using Lipofectamine 2000 (Invitrogen). The medium was changed with starvation medium (Earle’s Balanced Salt Solution; EBSS) 24 h after transfection for autophagy induction.
Cells were transfected with Nurr1 subcloned into pcDNA3.1 vector[23] for Nurr1 overexpression (OE). […] Nurr1 OE or KD by transfection was analyzed by Western blot.
Cellular oxidative stress was detected using the DCFDA Cellular ROS Assay Kit (Abcam) according to the manufacturer’s protocol. Briefly, cells seeded in black clear bottom 96 well plate were stained with DCFDA solution (20 µM) for 45 min at 37 °C. […] Cytotoxicity was determined by measuring lactate dehydrogenase (LDH) release into the culture medium using a LDH cytotoxicity detection kit (Roche)[33]. Absorbance was measured at 490 nm with a microplate reader and cytotoxicity was calculated as a percentage (%) relative to 1% TritonX-100 control. Cell viability was determined using 3-(4,5-dimethylthiazol-2-yl)-2,5-diphenyltetrazolium bromide (MTT) as previously described. Briefly, cells were incubated with 5 mg/ml of MTT (Sigma-Aldrich) solution for 3.5 h at 37 °C. MTT formazan crystals were dissolved in 10 times the volume of MTT solvent (4 mM HCl and 0.1% Nonidet P-40 in isopropanol) and the absorbance from the generated blue formazan was measured at 570 nm after 15 min incubation at room temperature. Cell viability was calculated as a percentage (%) of MTT reduction relative to vehicle control.
For orientation: Release of lactate dehydrogenase indicates damage to the cell membrane.

Data set [1] has as its system AAV-αSyn-induced male mice. The data set is described as follows: Cylinder test, AAV-αSyn-induced PD model mice. Type of data set: in vivo, mouse. The settings on record: αSynWT and αSynA53T mice; CQ 40, 4A7C-301 5 mg/kg/day i.p. The source says: Adeno-associated viruses (AAVs) expressing GFP only or αSyn (wild-type or A53T) were kindly provided by Dr. Yoon Seong Kim from the University of Central Florida. Recombinant AAV vectors were produced using modified pAAV-IRES-hrGFP (Agilent) to express wild-type and mutant human αSyn under control of the CMV promoter. Viral particles (AAV2) were produced at the University of Iowa Viral Vector Core according to standard operating procedures (https://medicine.uiowa.edu/vectorcore/). […] AAV vectors were delivered into the substantia nigra unilaterally by stereotaxic surgery.
Mice were placed in a transparent plastic cylinder (15.5 cm high, 12.7 cm diameter) with a mirror behind it. Spontaneous activity was recorded and measured as counting the number of rearing events for 3 min session. A rear was considered only when the mouse touched the wall of the cylinder with its forelimb paws while standing on its hindlimbs (vertical movement) to count meaningful physiological movements.

[2] abbreviates: Nurr1-LBD and full-length Nurr1, SK-N-BE(2)C cells, Fig. 1d,e.
The mark [3] stands for this setting: Nurr1 activation, Supplementary Table 1, values in µM.

Structures are written as SMILES. Values joined by “and” are separate entries in the source; they are usually repeats but may differ in a detail not shown here. Equal values may be shown once. Read-outs that look alike come from different tables or passages of the source.

T1 sequence (Q06219 360-595 limits assumed): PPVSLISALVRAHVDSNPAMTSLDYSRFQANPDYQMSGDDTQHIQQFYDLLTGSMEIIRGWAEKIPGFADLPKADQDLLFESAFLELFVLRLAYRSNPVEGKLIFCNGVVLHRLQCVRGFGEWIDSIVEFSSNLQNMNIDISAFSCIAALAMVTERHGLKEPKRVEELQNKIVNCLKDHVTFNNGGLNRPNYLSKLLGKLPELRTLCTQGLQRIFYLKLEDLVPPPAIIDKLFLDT

For the compound `CCN1CCN(c2cc(N3CCN(CC)CC3)nc(NCCNc3ccnc4cc(Cl)ccc34)n2)CC1` [4A7C-301, N^1-(4,6-bis(4-ethylpiperazin-1-yl)pyrimidin-2-yl)-N^2-(7-chloroquinolin-4-yl)ethane-1,2-diamine], the “Luciferase activity (fold), Nurr1” value at Nurr1-LBD (Fig. 1f, CQ 100 µM, 4A7C-301 20 µM) was 16.1033 fold and 17.0687 fold and 15.1126 fold. For the same compound, the “Luciferase activity (fold)” value is 1.566 fold and 1.556 fold and 1.583 fold on Nurr1-LBD (0.1 µM); 2.853 fold and 2.913 fold and 2.848 fold at Nurr1-LBD (1 µM); 8.938 fold and 9.512 fold and 11.2109 fold at Nurr1-LBD (10 µM); 17.8435 fold and 18.5652 fold and 17.952 fold on Nurr1-LBD (20 µM). Besides, the figures for the EC50 on Nurr1-LBD (setting [2]) and at Nurr1-LBD (setting [3]) were 7 to 8 µM and 6.53 µM, respectively. The Maximum fold activity at Nurr1-LBD (Nurr1 activation, Supplementary Table 1) is 18.12 ± 3.02 fold and 18.12 fold. Also, the “LDH release (%)” value in the data set with N27-A cells (Control) is 36.8915% and 36.4082% and 36.6047% and 36.8443%; in the data set with N27-A cells (Nurr1 KD) it was 55.7866% and 55.7395% and 55.4251% and 55.8102%; in the data set on N27-A cells (Nurr1 OE), 22.7388% and 23.725% and 22.6956% and 22.8802%. For the same compound, in the data set with N27-A cells, the “MPP+-induced cytotoxicity (in words)” value is on record as “significantly decreased”. In the data set on N27-A cells (N27-A cells, MPP+-induced cytotoxicity), the “concentration of maximal efficiency, times lower than CQ” value is ~ 20 times. In data set [1], the “motor deficits, cylinder test (rearing) (in words)” value is recorded as “improved motor deficits”.
As to `CCN(CC)CCCC(C)Nc1ccnc2cc(Cl)ccc12` (stereo not drawn) [CQ, chloroquine], the EC50 (usually the midpoint of the concentration-response curve) was 50 to 70 µM on Nurr1-LBD (setting [2]) and 50.2 µM at Nurr1-LBD (setting [3]). Further, the “LDH release (%)” value with N27-A cells (Control) is 38.0191% and 38.0584% and 38.4906% and 38.2156%; with N27-A cells (Nurr1 KD), 55.7041% and 55.6609% and 55.7395% and 55.7788%; in the data set with N27-A cells (Nurr1 OE), 24% and 23.9568% and 23.9529% and 23.9254%. The “MPP+-induced cytotoxicity (in words)” value in the data set on N27-A cells is recorded as “significantly decreased”. In addition, the “motor deficits, cylinder test (rearing) (in words)” value in data set [1] is on record as “partial recovery”.
